What is called IC50 is the concentration that inhibits the measured activity by half. A low value points to inhibition by little substance.

T1 sequence (Q06187 whole entry): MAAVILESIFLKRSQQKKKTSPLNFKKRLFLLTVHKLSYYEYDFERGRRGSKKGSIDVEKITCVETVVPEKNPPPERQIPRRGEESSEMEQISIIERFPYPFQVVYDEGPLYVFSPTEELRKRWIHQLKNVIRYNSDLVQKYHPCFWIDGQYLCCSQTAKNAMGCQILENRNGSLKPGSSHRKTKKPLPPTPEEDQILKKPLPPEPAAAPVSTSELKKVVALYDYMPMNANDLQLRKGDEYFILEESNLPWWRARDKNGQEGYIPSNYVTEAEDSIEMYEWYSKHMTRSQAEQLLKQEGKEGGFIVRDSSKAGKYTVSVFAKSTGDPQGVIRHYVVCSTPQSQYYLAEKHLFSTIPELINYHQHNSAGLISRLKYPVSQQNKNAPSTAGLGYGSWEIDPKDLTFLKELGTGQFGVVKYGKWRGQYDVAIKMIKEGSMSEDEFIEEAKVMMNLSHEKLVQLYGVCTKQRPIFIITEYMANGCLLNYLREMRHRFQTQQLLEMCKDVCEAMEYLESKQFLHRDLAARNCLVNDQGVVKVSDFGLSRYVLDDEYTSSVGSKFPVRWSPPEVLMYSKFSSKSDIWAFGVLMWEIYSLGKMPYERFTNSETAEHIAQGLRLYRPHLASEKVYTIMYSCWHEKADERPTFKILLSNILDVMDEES

The test addresses T1, BTK (Homo sapiens, UniProt Q06187).
T1 construct: purchased Upstate 14-552
The test is described as follows: In vitro BTK kinase assay (BTK-POLYGAT-LS). Particulars: IC50 (10 uM ATP). It is filed as biochemical. The procedure:
In vitro BTK Kinase Assay
The purpose of the BTK in vitro assay is to determine compound potency against BTK through the measurement of IC50. […] For a typical assay, a 24 μL aliquot of a ATP/peptide master mix (final concentration; ATP 10 μM, polyGAT 100 nM) in kinase buffer (10 mM Tris-HCl pH 7.5, 10 mM MgCl2, 200 μM Na3PO4, 5 mM DTT, 0.01% Triton X-100, and 0.2 mg/ml casein) is added to each well. […] The assay is incubated for 30 minutes before being stopped with 28 μL of a 50 mM EDTA solution. […] The plate is covered and incubated for 45 minutes at room temperature.
Turning to `CC1C(Nc2ncnc3[nH]ncc23)CCCN1C(=O)CNc1ccccc1S(=O)(=O)C1CCCC1` (centres unmarked) [Compound 69], the IC50 is < 100 nM. As for `CCN(c1ncnc2[nH]ccc12)[C@H]1CCCN(C(=O)CNc2cc(Cl)cc(Cl)c2)C1` [Compound 126], the figure is > 10000 nM.

The compound `O=C(CNc1cc(Cl)cc(Cl)c1)N1CCC[C@@H](Nc2ncnc3[nH]cnc23)C1` [Compound 10] returned an IC50 of 1000 to 10000 nM. The result for `CN(c1ncnc2[nH]ccc12)C1CCCN(C(=O)CNc2cccc(Cl)c2)C1C(F)(F)F` (centres unmarked) [Compound 16] reads < 100 nM; that for `O=C(CNc1cc(Cl)cc(Cl)c1)N1CCCC(Nc2ncnc3[nH]ccc23)C1C1CCCC1` (centres unmarked) [Compound 33], < 100 nM; that for `NC(=O)c1cnc2[nH]ccc2c1NC1CCCN(C(=O)NCc2cc(Cl)cc(Cl)c2)C1` (centres unmarked) [Compound 224], < 100 nM. In the case of `C[C@H]1[C@@H](Nc2ncnc3[nH]ncc23)CCCN1C(=O)CNc1cc(F)cc(Cl)c1` [Compound 27], the IC50 lay within 100 to 999 nM. For the compound `CN(c1ncnc2[nH]ccc12)[C@@H]1CCCN(C(=O)CNc2cc(F)cc(Cl)c2)C1` [Compound 165], the IC50 lay within 100 to 999 nM. As for `CCC[C@@H](Nc1cc(Cl)cc(Cl)c1)C(=O)N1CCCC(Nc2ncnc3[nH]ccc23)C1C` (some centres unmarked) [Compound 64], the figure is < 100 nM. As for `C[C@H]1[C@@H](Nc2ncnc3[nH]ncc23)CCCN1C(=O)CNc1cc(Cl)cc(Cl)c1` [Compound 31], the figure is < 100 nM. `O=C1CCc2c(ncnc2N2CCC3CCN(C(=O)CNc4cc(Cl)cc(Cl)c4)CC32)N1` (centres unmarked) [Compound 156] gave an IC50 of 1000 to 10000 nM. As for `Nc1ncnc(N[C@@H]2CCCN(C(=O)CNc3cc(Cl)cc(Cl)c3)C2)c1Cl` [Compound 8], the figure is 1000 to 10000 nM. `Nc1ncnc2c1ccn2C1CCCN(C(=O)CNc2cc(Cl)cc(Cl)c2)C1` (centres unmarked) [Compound 231] showed an IC50 of 1000 to 10000 nM.

As for `CCC[C@@H](Nc1cc(Cl)cc(Cl)c1)C(=O)N1CCC2CCN(c3ncnc4[nH]ccc34)C2C1` (some centres unmarked) [Compound 101], the IC50 was < 100 nM. Compound `O=C(CNc1ccccc1)N1CCCC(Nc2ncnc3[nH]ncc23)C1` (centres unmarked) [Compound 179] had an IC50 of 1000 to 10000 nM. With `O=C(CNc1cc(Cl)cc(Cl)c1)N1CCCC(Nc2ncnc3[nH]ccc23)C1C(F)(F)F` (centres unmarked) [Compound 19], the IC50 was < 100 nM. As for `CC(C)CN(CC(C)C)S(=O)(=O)c1ccccc1NCC(=O)N1CCC[C@@H](Nc2ncnc3[nH]ccc23)C1` [Compound 218], the figure is 100 to 999 nM; as for `CCCN(c1ncnc2[nH]ccc12)C1CCCN(C(=O)CNc2cc(Cl)cc(Cl)c2)C1` (centres unmarked) [Compound 106], < 100 nM. As for `CC1C(Nc2ncnc3[nH]ccc23)CCCN1C(=O)CNc1ccccc1S(=O)(=O)c1ccccc1` (centres unmarked) [Compound 75], the figure is < 100 nM; as for `NC(=O)c1cnc2[nH]ccc2c1NC1CCCN(C(=O)CNc2cc(F)cc(Cl)c2)C1` (centres unmarked) [Compound 229], < 100 nM.

Take `O=C([C@H](Nc1cc(F)cc(Cl)c1)C1CC1)N1CCC[C@H](Nc2ncnc3[nH]ncc23)C1` [Compound 223]: the IC50 was in the range of 1000 to 10000 nM.

Consider `O=C(CNc1ccccc1C(F)(F)F)N1CCC[C@H](Nc2ncnc3[nH]ncc23)C1` [Compound 195], for which the IC50 is > 10000 nM. With `O=C(CNc1cc(Cl)cc(Cl)c1)N1CCC[C@H](Nc2ncnc3[nH]cnc23)C1` [Compound 175], the IC50 was 100 to 999 nM. As for `O=C(O)CN(c1ncnc2[nH]ccc12)[C@@H]1CCCN(C(=O)CNc2cc(Cl)cc(Cl)c2)C1` [Compound 36], the figure is 1000 to 10000 nM; as for `CN(c1ncnc2[nH]ccc12)C1CCCN(C(=O)CNc2cc(Cl)cc(Cl)c2)C1C(F)(F)F` (centres unmarked) [Compound 14], < 100 nM; as for `C[C@@H]1C[C@H](Nc2ncnc3[nH]ncc23)CN(C(=O)CNc2cc(Cl)cc(Cl)c2)C1` [Compound 103], < 100 nM. As for `O=C(CNc1cc(C(F)(F)F)cc(C(F)(F)F)c1)N1CCC[C@H](Nc2ncnc3[nH]ccc23)C1` [Compound 187], the figure is 1000 to 10000 nM; as for `CC1C(Nc2ncnc3[nH]ccc23)CCCN1C(=O)[C@H](Nc1cc(Cl)cc(Cl)c1)C1CC1` (some centres unmarked) [Compound 51], 100 to 999 nM; as for `Nc1ncnc(N2CCC3CCN(C(=O)CNc4cc(Cl)cc(Cl)c4)CC32)c1F` (centres unmarked) [Compound 112], < 100 nM.

The compound `C[C@H]1[C@H](Nc2ncnc3[nH]ncc23)CCCN1C(=O)CNc1cc(Cl)cc(Cl)c1` [Compound 30] registered an IC50 of 100 to 999 nM.

In the case of `O=C(CNc1cc(Cl)cc(Cl)c1)N1CCC[C@H](Nc2ncnc3scnc23)C1` [Compound 115], the IC50 was > 10000 nM.

Turning to `C[C@@H](Nc1cc(Cl)cc(Cl)c1)C(=O)N1CCC2CCN(c3ncnc4[nH]ccc34)C2C1` (some centres unmarked) [Compound 56], the IC50 is < 100 nM. Consider `C[C@H]1[C@H](Nc2ncnc3[nH]ncc23)CCCN1C(=O)CNc1cc(F)cc(Cl)c1` [Compound 26], for which the IC50 is 100 to 999 nM.

For the compound `CN(c1ncnc2[nH]ncc12)[C@@H]1CCCN(C(=O)CNc2cc(Cl)cc(Cl)c2)C1` [Compound 211], the IC50 was < 100 nM.

Regarding `O=C([C@H](Nc1cc(Cl)cc(Cl)c1)C1CC1)N1CCC[C@@H](Nc2ncnc3[nH]ccc23)C1` [Compound 207], the IC50 is 100 to 999 nM. The result for `O=C(CNc1cc(Cl)cc(Cl)c1)N1CC[C@@H](Nc2ncnc3[nH]ccc23)C1` [Compound 155] reads > 10000 nM. As for `O=C(CNc1cc(Cl)cc(Cl)c1)N1CCC[C@@H](Nc2c(-c3ccc(C(=O)N4CCOCC4)cc3)cnc3[nH]ccc23)C1` [Compound 3], the figure is < 100 nM; as for `O=C1C(Nc2cc(F)cc(Cl)c2)CC2CCC(Nc3ncnc4[nH]ccc34)CN12` (centres unmarked) [Compound 53], 1000 to 10000 nM; as for `CCC1C(Nc2ncnc3[nH]ccc23)CCCN1C(=O)CNc1cc(F)cc(Cl)c1` (centres unmarked) [Compound 7], 100 to 999 nM. Turning to `CC(=O)Nc1cc(NC2CCCN(C(=O)CNc3cc(Cl)cc(Cl)c3)C2)ncn1` (centres unmarked) [Compound 85], the IC50 fell in the range of 1000 to 10000 nM. As for `O=C(CNc1cc(Cl)cc(Cl)c1)N1CC[C@H](Nc2ncnc3[nH]ncc23)C1` [Compound 147], the figure is > 10000 nM; as for `O=C(CNc1cc(C(F)(F)F)cc(C(F)(F)F)c1)N1CCC[C@H](Nc2ncnc3[nH]ncc23)C1` [Compound 186], > 10000 nM; as for `CCCN(c1ncnc2[nH]ccc12)[C@H]1CCCN(C(=O)CNc2cc(Cl)cc(Cl)c2)C1` [Compound 118], > 10000 nM. As for `CN(C)C(=O)CN(c1ncnc2[nH]ccc12)[C@@H]1CCCN(C(=O)CNc2cc(Cl)cc(Cl)c2)C1` [Compound 40], the figure is 100 to 999 nM; as for `O=C(CNc1cc(Cl)cc(Cl)c1)N1CC[C@H](Nc2ncnc3[nH]ccc23)C1` [Compound 152], > 10000 nM; as for `Nc1ncnc(N[C@H]2CCCN(C(=O)CNc3cc(Cl)cc(Cl)c3)C2)c1Cl` [Compound 134], > 10000 nM. Consider `O=C(CNc1cc(Cl)cc(C(F)(F)F)c1)N1CCC[C@H](Nc2ncnc3[nH]ncc23)C1` [Compound 178], for which the IC50 was 1000 to 10000 nM. As for `CN(c1ncnc2[nH]ncc12)[C@@H]1CCN(C(=O)CNc2cc(Cl)cc(Cl)c2)C1` [Compound 131], the figure is 1000 to 10000 nM; as for `O=C(CNc1cc(Cl)cc(Cl)c1)N1CCCC(N(CCN2CCCCC2)c2ncnc3[nH]ccc23)C1` (centres unmarked) [Compound 88], 1000 to 10000 nM; as for `CN(c1ncnc2[nH]ncc12)[C@H]1CCCN(C(=O)CNc2cc(Cl)cc(Cl)c2)C1` [Compound 212], 100 to 999 nM.

Values taken from patent US9273028B2, “Heterocyclic tyrosine kinase inhibitors” (Biogen MA Inc., priority 2010, dated 2016).
